These results are taken from patent US6251903A, “Alkyl, azido, alkoxy, and fluoro-substituted and fused quinoxalinediones and the use thereof as glycine receptor antagonist” (priority 2000, dated 2001).

“Also recorded” adds a separate entry of the source. Like-named read-outs stand apart in the source and are kept apart here.

One series concerns neurons. Conditions: literature, cited from earlier work.
Series [1] deals with glycine binding site of the NMDA receptor. To be noted: literature, cited from earlier work.
Series [2] has as its system non-NMDA glutamate receptors. Conditions: literature, cited from earlier work.
Another series has as its system animals. To be noted: literature; cited from earlier work.
For series [3] the following is noted: literature, cited from earlier work.
The target of another series is glycine binding site (Rattus norvegicus, UniProt P35439). Nature of the series: affinity for the glycine binding site / glycine/NMDA receptor (Ki; method not stated). From the text:
(§1) The binding affinities of quinoxaline-2,3-diones at NMDA receptor glycine sites also were estimated by electrophysiological assays with either cloned rat NMDA receptors expressed in Xenopus oocytes, or non-NMDA receptors expressed in oocytes by whole rat brain poly(A)^+ RNA. […] For NMDA receptors Ki values were approximated by averaging values at three subtype combinations (NR1A/NR2A, NR1A/NR2B, and NR1A/NR2C).

The subject of a further series is DBA-2 mice. Nature of the series: audiogenic seizure model in DBA-2 mice. In kind it is in vivo. To be noted: Mus musculus, ip, 0.5 h; i.p. injection. From the text: The anticonvulsant activity of the glycine and excitatory amino acid antagonists can be assessed in the audiogenic seizure model in DBA-2 mice as follows. DBA-2 mice can be obtained from Jackson Laboratories, Bar Harbor, Maine. These mice at an age of <27 days develop a tonic seizure within 5-10 seconds and die when they are exposed to a sound of 14 kHz (sinus wave) at 110 dB (Lonsdale, D., Dev. Pharmacol. Ther. 4:28 (1982)). […] 21 day old DBA-2 mice are used for all experiments. Compounds are given intraperitoneally in either saline, DMSO, or polyethyleneglycol-400. Appropriate solvent controls are included in each experiment. Dose response curves are constructed by giving increasing doses of drug from 1 mg/kg to 100 mg/kg. Each dose group (or solvent control) consists of at least six animals.

For series [4], the system named is mice. Nature of the series: anticonvulsant activity in maximum electroshock seizure (MES) experiments in mice. In kind it is in vivo, male Swiss/Webster mice. Conditions: Mus musculus, ip; Table III; i.p. injection.
A further series addresses PCP receptor. Conditions: Wong et al. 1986; cited from earlier work.
In series [5] the target is NMDA receptor glycine sites. Kind of series: electrophysiological assay, cloned rat NMDA receptors expressed in Xenopus oocytes. In kind it is cell-based. To be noted: Table II; from electrophysiology using Xenopus oocytes.
Excerpt: as §1

For series [6], the system named is mice. Kind of series: anticonvulsant activity in maximum electroshock seizure (MES) experiments in mice. In kind it is in vivo, male Swiss/Webster mice. On the procedure: The seizure stimulus parameters were: 50 mA, 60 Hz, rectangular pulse, width 0.8 msec, duration 200 msec. Tonic hind limb extension observed after application of the electrical stimulus was recorded as occurrence of seizure. The drug was applied i.v. as an aqueous Tris (Tromethamine) solution.

The test system of series [7] is mice. Nature of the series: formalin test for pain in Swiss Webster mice. In kind it is in vivo, male Swiss Webster mice. Conditions: i.p., early and late phases. On the procedure: The effects of the glycine receptor antagonists of the present invention on chronic pain can be evaluated as follows. Male Swiss/Webster mice weighing 25-35 grams are housed five to a cage with free access to food and water and are maintained on a 12 hour light cycle (light onset at 0800h). The glycine receptor antagonist is dissolved in DMSO at a concentration of 140 and 5-40 mg/mL, respectively. DMSO is used as vehicle control. All drugs=are injected intraperitoneally (1 μl/g). […] Mice are observed in a plexiglass cylinder, 25 cm in diameter and 30 cm in height. The plantar surface of one hindpaw is injected subcutaneously with 20 μl of 5% formalin. The degree of pain is determined by measuring the amount of time the animal spends licking the formalin-injected paw during the following time intervals: 0-5' (early phase); 5'-10', 10'-15' and 15'-50' (late phase). To test whether the glycine/excitatory amino acid antagonists prevent chronic pain in the test animals, vehicle (DMSO) or drugs dissolved in vehicle at doses of 1 mg/kg to 40 mg/kg are injected intraperitoneally 30 minutes prior to the formalin injection. For each dose of drug or vehicle control at least six animals are used.
Briefly, after a 60 minute accommodation period in plexiglass jars, mice were weighed and injected intraperitoneally (i.p.) with NDMQX (1-20 mg/kg; N=6-10 mice/dose). Controls were injected with DMSO (1 mL/kg, i.p.). Thirty min later, mice were injected with formalin (20 μl of 5% solution) just under the skin of the right hind paw, transferred to the plexiglass jars, and immediately observed for licking or biting of the injected paw for 1 hr. The amount of time that each mouse spent licking the injected paw was measured at 0-5 min (early phase) and 15-50 min (late phase).
In the formalin test, following a 1 hr accommodation period, mice were injected i.p. with NMCQX (1.00-10.00 mg/kg, N=7-13 mice/dose) or NDMQX (0.5-20.00 mg/kg, N=8-9 mice/dose). Control mice were injected with Tris (0.5 M) or Bis-Tris (0.2 M), respectively. Mice were then injected with formalin. […] The amount of time that each mouse spent licking and/or biting the injected paw was recorded for 1 hr.

The subject of series [8] is mice. Nature of the series: MES test with i.p. NMCQX or NDMQX (Example 51). In kind it is in vivo, Swiss Webster mice. Conditions: NMCQX 1.25-7.50 mg/kg, NDMQX 5.00-15.00 mg/kg. The procedure:
In the MES test, mice were injected i.p. with NMCQX (1.25-7.50 mg/kg) or NDMQX (5.00-15.00 mg/kg). Control mice were injected with Tris (0.05 M) or Arginine (0.1 M), respectively. Seizures were then induced by applying a rectangular pulse, 50 mA, 60 pulses/sec, 0.8 msec pulse width, and 0.2 sec train length, at the time of the drugs' peak effect.

The subject of another series is rats. Nature of the series: rat model of permanent focal cerebral ischemia, continuous intravenous infusion. In kind it is in vivo, male Sprague-Dawley rats. On the procedure:
Male Sprague-Dawley rats (290-320 g) were […] and maintained under anesthesia with ±2% of halothane. […] The common carotid arteries (CCA) were isolated, and a loose silk ligature Was placed around each CCA. A vertical skin incision was made between the left orbit and the auditory canal, posterior part of zygoma removed and small opening (2.0/2.5 mm) drilled dorsorostrally to the foramen ovale under constant saline irrigation. The dura was opened with a microsurgical hook and the brain gently retracted with a fine spatula to expose the bifurcation of the internal carotid artery and the middle cerebral artery. The ipsilateral CCA was ligated and the MCA coagulated from its origin to the olfactory tract Two hours after MCA occlusion, the clip from the contralateral CCA was removed.
NDMQX was dissolved in 0.1 M L-arginine and 5% glucose and infused as a slow 10 mg/kg i.v. bolus (immediately after MCA occlusion) followed by 7 mg/kg/h infusion for 22 hours.
Brains were sliced into 2 mm blocks and stained with tetrazolium red (2,3,5-triphenyl tetrazolium chloride). The areas of brain damage were assessed using an image analyzer (Image-1, Universal Imaging Corporation, PA) to determine the volume of cortical and subcortical infarction by integration of areas and the distance between each level.
For the drug administration, the NMCQX was dissolved in 0.05 Tris and 5% glucose. It was infused as a slow 2 mg/kg i.v. bolus (immediately after MCA occlusion) followed by 1.4 mg/kg/h infusion for 22 hours.

Series [9] in a line: penetration of the blood/brain barrier, access to the central nervous system. Conditions: inferred from Ki and MES ED50. In kind it is in vivo.
Setting [10] is: listed as 6,7-dinitroquinoxaline-2,3-dione.
[11] abbreviates: listed as 6-cyano-7-nitroquinoxaline-2,3-dione.

Consider `O=c1[nH]c2cc([N+](=O)[O-])c([N+](=O)[O-])cc2[nH]c1=O` [6,7-dinitro-1,4-dihydroquinoxaline-2,3-dione], for which the “neuroprotective efficacy” value in the series with neurons is “neuroprotective activity”; with neurons (setting [10]), “neuroprotective in vitro”. The figures for the “glycine site antagonism or affinity (words)” value in [1] and in series [1] (setting [10]) were “can antagonize the responses to L-glutamate by interacting with the glycine recognition sites; also recorded: inhibit [^3 H] glycine binding to the strychnine-insensitive glycine binding sites” and “glycine antagonists”, respectively. Besides, the “antagonism at kainate / AMPA / non-NMDA receptors” value was “more potent antagonists of kainate than glycine; also recorded: potent non-NMDA glutamate receptor antagonists” in series [2] and “AMPA” in series [2] (setting [10]). The “in vivo activity” value in the series on animals is reported as “antagonize responses mediated by NMDA-associated glycine recognition sites in vivo”. Further, in [3] (listed as DNQX), the “penetration of the blood/brain barrier (words)” value is listed as “poor access to the central nervous system”.
Take `N#Cc1cc2nc(O)c(O)nc2cc1[N+](=O)[O-]` [6-cyano-7-nitro-1,4-dihydroquinoxaline-2,3-dione]: in the series with neurons, the “neuroprotective efficacy” value is reported as “neuroprotective in vitro”. The “glycine site antagonism or affinity (words)” value was “can antagonize the responses to L-glutamate by interacting with the glycine recognition sites; also recorded: inhibit [^3 H] glycine binding to the strychnine-insensitive glycine binding sites; also recorded: antagonizes NMDA receptor-mediated responses by a competitive interaction of the glycine binding site” in [1] and “glycine antagonists” in series [1] (setting [11]). The “antagonism at kainate / AMPA / non-NMDA receptors” value in [2] is listed as “more potent antagonists of kainate than glycine”; in series [2] (setting [11]), “AMPA”; in series [2] (listed as 7-cyano-6-nitro-1,4-dihydroquinoxaline-2,3-dione) it was “potent non-NMDA glutamate receptor antagonists”. Also, in the series with animals, the “in vivo activity” value is “antagonize responses mediated by NMDA-associated glycine recognition sites in vivo”. The figures for the “penetration of the blood/brain barrier (words)” value in series [3], in series [3] (listed as CNQX) and in series [3] (listed as cyano-7-nitro-1,4-dihydroquinoxaline-2,3-dione) were “incapable of crossing the blood/brain barrier after i.p. administration”, “poor access to the central nervous system” and “poor access to the central nervous system”, respectively.
In the case of `O=c1[nH]c2cc([N+](=O)[O-])cc([N+](=O)[O-])c2[nH]c1=O` [5,7-dinitro-1,4-dihydroquinoxaline-2,3-dione], the “glycine site antagonism or affinity (words)” value in [1] is given as “potent-antagonist of the strychnine insensitive glycine receptor”. Besides, in the series on animals, the “in vivo activity” value is reported as “has anticonvulsant properties”. For the same compound, the “penetration of the blood/brain barrier (words)” value in series [3] is reported as “poor access to the central nervous system”.
For `O=c1[nH]c2c(F)c(F)c(F)c(F)c2[nH]c1=O` [F F F F, 5,6,7,8-tetrafluoro-1,4-dihydroquinoxaline-2,3-dione], the Ki at glycine binding site (Table III, read-out: Ki) was 2.19 µM. Further, the ED50 in the series on DBA-2 mice is 9 mg/kg; in the series on mice [4], 20 mg/kg.
Turning to `C[C@]12N[C@H](Cc3ccccc31)c1ccccc12` [MK801], on PCP receptor, the Kd was roughly 0.003 µM. Also, in the series on neurons, the “neuroprotective efficacy” value is “have neuroprotective efficacy both in vitro and in vivo”.
Consider `Cc1c(Cl)cc2[nH]c(=O)c(=O)[nH]c2c1[N+](=O)[O-]` [NMCQX, 7-Chloro-6-methyl-5-nitro-1,4-dihydroquinoxaline-2,3-dione], for which the Ki (in series [5]; at glycine binding site) was 0.005 µM in each case. The “times better than 6,7-dichloro-5-nitro-1,4-dihydroquinoxaline-2,3-dione as anticonvulsant” value with mice [6] (MES ED50 ratio) is given as 4-5 times. Also, the “ED50 as an anticonvulsant in the MES experiment in mice” value in the series with mice [6] (route not stated) was found to be 1 mg/kg. The “antinociceptive effect in the formalin test” value in the series on mice [7] is recorded as “dose-dependent antinociceptive effect in both phases”. Besides, the “protection from electroshock seizures” value in the series with mice [8] was “dose-dependently protected mice from generalized clonic-tonic seizures”. Moreover, in the series on rats (2 mg/kg i.v. bolus then 1.4 mg/kg/h for 22 hours, p<0.05), the “reduction in cortical infarct volume” value is listed as 75%. The “neuroprotection” value in the series with rats (rat focal ischemia) is recorded as “significant neuroprotection”.
In the case of `O=c1[nH]c2cc(F)c(F)c([N+](=O)[O-])c2[nH]c1=O` [NO2 F F H, 6,7-Difluoro-5-nitro-1,4-dihydro-2,3-quinoxalinedione], at glycine binding site (from Ki), the “times less active than 6,7-dichloro-5-nitro-1,4-dihydroquinoxaline-2,3-dione at the glycine/NMDA receptor” value is “more than 20 times”. The Ki on glycine binding site (read-out: Ki, affinity for the glycine/NMDA receptor) came out at 0.087 µM. Also, the ED50 in the series on mice [6] (Mus musculus, iv, Table III, i.v. injection, read-out: ED50 (MES)) was 0.7 to 0.8 mg/kg. This compound showed an ED100 in the series on mice [6] (Mus musculus, Table IV, i.v.) of 2.5 mg/kg. Moreover, in the series on mice [6] (Mus musculus, route not stated, read-out: ED50 as an anticonvulsant in the MES experiment in mice), the ED50 lay in the range of 0.7 to 0.8 mg/kg. In the series with mice [6] (Table IV, i.v.), the “ED50 (MES)” value lay in the range of 0.7 to 0.8 mg/kg and the “IV peak of action” value turned out to be 1 min. The “% protection after 60 min.” value in the series on mice [6] (i.v., 2.5 mg/kg) was determined as 0%. Also, in the series on mice [6] (i.v., after 60 min), the “protection against MES after 60 min.” value is given as “no more protection was observed”. In addition, the “times better in crossing the blood brain barrier than 6,7-dichloro-5-nitro-1,4-dihydroquinoxaline-2,3-dione” value in [9] was “about 100 times”.
In the case of `O=c1[nH]c2cc(F)c(F)c(Br)c2[nH]c1=O` [Br F F H], the Ki on glycine binding site (Table III, read-out: Ki) came out at 2.3 µM. Besides, the 50% effect level with DBA-2 mice (ED50) was put at a dose of 30 mg/kg.

As a reminder, the ED50 is the midpoint of the dose-response relation. Usually Kd stands for a measure of binding affinity in units of concentration.
